Source: US20240238310A1, “MODULATION OF SEX STEROID HORMONE PRODUCTION AND ACTIVITY FOR TREATING AND PREVENTING HERNIAS” (Northwestern University, priority 2020, published 2024)
“Also recorded” adds a separate entry of the source.

What was measured:
Arom^hum mice [1] = conditions: 3 weeks old mice; high-dose DHT via injection for 53 days; vs vehicle; p<0.005
Method: 3-week-old mice were treated with vehicle (Veh) or DHT for 53 days.

[2] = system: LAMT primary fibroblasts from Arom^hum mice; experiment: mRNA levels of estrogen-responsive and fibrotic genes in LAMT primary fibroblasts after E2 antagonist treatment; assay type: cell-based, mouse; conditions: MPP, pretreated 2 hours before addition of E2 (10 nM)
Method: FIG. 10. mRNA levels of estrogen-responsive genes [Pgr (A, E) and Greb1 (B, F)] and fibrotic genes [Spon2 (C, G), Kiss1 (D), and Eln (H)] in LAMT primary fibroblasts from Arom^hum mice after treatment with 100 nM ICI 182,780 (ICI) or […] MPP in the presence or absence of E2 (10 nM). Cells were pretreated with ICI 182,780 or MPP for 2 hours before the addition of E2. Veh, vehicle. *P<0.05, **P<0.01. GAPDH mRNA levels served as controls.
Experiment 1a2: Does the general E2 antagonist fulvestrant, which downregulates and blocks ER, or ERα-selective E2 antagonist MPP prevent, arrest or reverse LAMT muscle fibrosis, atrophy and inguinal hernias in male Arom^hum mice? […] Here, we will define whether the effects of E2 on hernia formation in LAMT is mediated via ERα in vivo. We will treat Arom^hum or WT mice with vehicle, fulvestrant (ICI 182,780), or MPP. […] Circulating and muscle tissue E2 levels will be measured using LC-MS^2. To validate the effects of each treatment, protein expression of ERα and E2/ERα target genes (Ccnd1, Pgr, and Greb1), and cell proliferation markers (Ki67 and PCNA) will be determined by IHC and immunoblotting. Fibrotic-related genes (Kiss1, Ren1, Emb, Timp1, Spon2, and Eln), the ECM marker Col1a1, and the myocyte marker Myh will be assessed using qPCR and IHC in LAMT after fulvestrant, MPP, and/or letrozole treatment. […]

[3] = system: LAMT Arom^Hum fibroblasts; experiment: R1881 treatment of primary fibroblasts, western blot (AR, PCNA); assay type: cell-based, mouse; conditions: for increase in PCNA levels (densitometry normalized to GAPDH): preliminary data
Method: (§2) Primary fibroblasts were isolated from LAMT from WT and Arom^Hum mice (n=5/genotype). Cells were treated for 24 hours with increasing doses (0.001, 0.01, 0.1, 1, 5, 10, and 100 nM) of R1881, a synthetic androgen, and compared to untreated cells by western blot.

LAMT WT fibroblasts = experiment: as above; assay type: cell-based, mouse; conditions: for increase in PCNA levels (densitometry normalized to GAPDH): preliminary data
Method: as §2

Arom^hum mice [4] = experiment: Reversal of established scrotal hernias and LAMT fibrosis/atrophy in Arom^hum mice; assay type: in vivo, mouse; conditions: for time required to reverse large hernias, compared to fulvestrant treatment / reversal of large scrotal hernia: Arom^hum mice with large hernias
Method: FIG. 16. […] Arom^hum mice with small to moderate size of hernias were treated with placebo or letrozole for 12 weeks. (A) Schematic diagram depicts the schedule of drug administration. (B) The area of scrotal hernia in Arom^hum mice. (C) Representative photomicrographs of Masson's trichrome-stained LAMT sections of WT and Arom^hum mice. Quantification of the percentage of connective tissue or fibrotic area (D) or myofiber area (E) in WT and Arom^hummice. 10 representative high-power fields were analyzed in each tissue. One-way ANOVA with Tukey's multiple comparison test, **p<0.01, ***p<0.001. Scale bars, […]. n=5 mice per group.
FIG. 17. […] Arom^hum mice with small to moderate size of hernias were treated with placebo or letrozole for 3 weeks. (A) Schematic diagram depicts the schedule of drug administration. (B) The area of scrotal hernia in Arom^hum mice.
FIG. 18. E2/ER antagonist fulvestrant reverses the large size of scrotal hernias and rescues LAMT fibrosis and myocyte atrophy in Arom^hum mice. Arom^hum mice with large size of hernias were treated with placebo or fulvestrant for 12 weeks. (A) Schematic diagram depicts the schedule of drug administration. (B) The area of scrotal hernia in Arom^hum mice. (C) Representative photomicrographs of Masson's trichrome-stained LAMT sections of WT and Arom^hum mice. Quantification of the percentage of connective tissue or fibrotic area (D) in WT and Arom^hum mice. 10 representative high-power fields were analyzed in each tissue. (E) Hydroxyproline content in LAMT of WT and Arom^hum mice treated with fulvestrant. One-way ANOVA with Tukey's multiple comparison test, ***p<0.001, ****p<0.0001. n=5 mice per group.
(§1) FIG. 19. Aromatase inhibitor letrozole reverses the large size of scrotal hernias in Arom^hum mice. Arom^hum mice with large size of hernias were treated with placebo or letrozole for 12 weeks. (A) Schematic diagram depicts the schedule of drug administration. (B) The area of scrotal hernia in Arom^hum mice.
as §1, with “20. E2/ER antagonist raloxifene” for “19. Aromatase inhibitor letrozole”, “raloxifene” for “letrozole”, “3” for “12”
We treated Arom^hum mice with letrozole for 12 weeks. […] Raloxifene is a selective estrogen receptor modulator (SERM) and is currently used to prevent and treat osteoporosis in postmenopausal women.
We treated Arom^hum mice with fulvestrant for 12 weeks when the hernia area was over 200 mm^2. Large hernias were completely disappeared after 3- to 4-week of fulvestrant administration. […] We measured the total amount of collagen (largely type I and III), a major component of ECM, through measuring the content of hydroxyproline(1).

Arom^hum mice [5] = experiment: Prevention of inguinal hernia, LAMT fibrosis and atrophy in Arom^hum mice (treatment started before hernia formation); assay type: in vivo, mouse
Text: Increased LAMT estrogen levels are associated with LAMT fibrosis, myocyte atrophy, and inguinal hernia development; aromatase inhibitor prevents hernia formation in Arom^hum mice. […] None of the WT littermates (n=32) developed hernia.
In the mouse, the scrotum is connected to the peritoneal cavity with a narrow funicular (or inguinal) canal, whose walls are composed of LAMT. Structurally normal LAMT is essential to maintain the tone of this canal and prevents herniation of bowel. LAMT is the critical site affected by E2 excess (FIGS. 2, 5, 6). As in many other tissues, stromal cells intimately interact with parenchymal cells (myocytes) in UAMT and LAMT (FIG. 6). […] Administration of the aromatase inhibitor letrozole started at 3 weeks of age for 12 weeks prevented LAMT atrophy, fibrosis and herniation in all (10 out of 10) treated Arom^hum mice (FIG. 6B).
Experiment 1a1: Does aromatase inhibition arrest or reverse LAMT fibrosis, atrophy, and hernia in male Arom^hum mice? […] The hernias will be classified as mild, early moderate, late moderate and severe if the bulging area through muscle tissue is <100 mm^2 (˜4 weeks), 100-150 mm^2 (˜6 weeks), 150-200 mm^2 (˜8 weeks), or >200 mm^2 (˜10 weeks), respectively. First, we will treat Arom^hum mice showing mild hernias with letrozole (SC 10 μg/day release pellet) or vehicle starting at 4 weeks of age for 12 weeks^63. We will assess whether muscle fibrosis, atrophy, and hernia can be arrested or reversed in mildly (<100 mm^2) affected animals. If early letrozole treatment can arrest mild muscle fibrosis, we will delay the initiation of treatment to 6, 8, or 10 weeks of age to determine whether letrozole can arrest or reverse the growth of the early moderate (6 weeks), late moderate (8 weeks) or severe hernia (10 weeks). Hernia development will be monitored by visual inspection twice a week for 12 weeks after letrozole administration and will be reported as hernia incidence using Kaplan-Meier curve analysis. The length and width of the observed hernias will be measured to calculate the surface area (length×width). After completion of the treatment, the mice will be dissected, and LAMT, UAMT (control), and serum will be collected. One hundred mg of frozen muscle tissue will be obtained to measure tissue estrogen levels. Circulating and tissue (LAMT and UAMT) E2 levels will be measured at the IIT Research Institute by Dr. Miguel Muzzio (see letter) using LC-MS^2. We will use immunoblotting and IHC to determine ERα expression in LAMT and UAMT.
This finding was published in PNAS in Oct., 2018. […] We treated Arom^hum mice with fulvestrant for 12 weeks starting at the age of 4 weeks (before hernia formation). As expected, placebo-treated Arom^hum mice developed scrotal hernias.

LAMT E2 = experiment: Serum and LAMT estradiol (E2) by LC-MS^2 after letrozole treatment; assay type: in vivo, mouse; conditions: Arom^hum mice, letrozole 10 μg daily SC pellets starting at week 3
Method: FIG. 4. (A) Serum estradiol (E2) and (B) LAMT E2 were measured by liquid chromatography-tandem mass spectrometry (LC-MS^2) assay after letrozole (let) treatment (n=10/group). *p<0.05. **p<0.01. Veh, vehicle.
LAMT estrogen levels are increased in Arom^hum mice. Arom^hum mice recapitulate the primary aspects of aromatase expression in men in that most peripheral (extragonadal) tissues, such as skeletal muscle and adipose tissue, express aromatase primarily using the distal promoter 1.4 and, to a lesser extent, the proximal promoter II (FIG. 3)^32. […] Local E2 levels in LAMT, however, are strikingly higher in Arom^hum mice than in WT mice (FIG. 4B).
Increased LAMT estrogen levels are associated with LAMT fibrosis, myocyte atrophy, and inguinal hernia development; aromatase inhibitor prevents hernia formation in Arom^hum mice. […]
Experiment 1a1: Does aromatase inhibition arrest or reverse LAMT fibrosis, atrophy, and hernia in male Arom^hum mice? […] Hernia development will be monitored by visual inspection twice a week for 12 weeks after letrozole administration and will be reported as hernia incidence using Kaplan-Meier curve analysis. The length and width of the observed hernias will be measured to calculate the surface area (length×width). […] Circulating and tissue (LAMT and UAMT) E2 levels will be measured at the IIT Research Institute by Dr. Miguel Muzzio (see letter) using LC-MS^2. […]

[6] = R1881 0.001-100 nM, 24 hours, western blot
[7] = Arom^hum mice with small to moderate hernias, letrozole for 12 weeks

C[C@]12CCC(=O)C[C@@H]1CC[C@@H]1[C@@H]2CC[C@]2(C)[C@@H](O)CC[C@@H]12 [DHT, dihydrotestosterone]
hernia volume (Arom^hum mice [1]): significantly decreased

Cc1c(-c2ccc(O)cc2)nn(-c2ccc(O)cc2)c1-c1ccc(OCCN2CCCCC2)cc1 [MPP, Methyl-Piperidino-Pyrazole]
E2-induced expression of estrogen-responsive genes (Pgr and Greb1) and fibrotic genes (Spon2, Kiss1, Eln) [2]: significantly decreased E2-induced expression of estrogen-responsive genes (Pgr and Greb1) and fibrotic genes (Spon2, Kiss1 and, Eln)

C[C@]1(O)CC[C@H]2[C@@H]3CCC4=CC(=O)CCC4=C3C=C[C@@]21C [R1881, (17b)-17-Hydroxy-17-methyl-estra-4,9,11-trien-3-one]
increase in PCNA levels (densitometry normalized to GAPDH) ([3]; 0.001 nM R1881, 24 hours): 20% | increase in PCNA levels (densitometry normalized to GAPDH) ([3]; 0.01 nM R1881, 24 hours): 30% | decrease in PCNA levels ([3]; 10 nM R1881, 24 hours): 40% | decrease in PCNA levels ([3]; 100 nM R1881, 24 hours): 30% | AR levels [3, 6]: increased AR levels in a dose-dependent manner | increase in PCNA levels (densitometry normalized to GAPDH) (LAMT WT fibroblasts; 0.001 nM R1881, 24 hours): 80% | increase in PCNA levels (densitometry normalized to GAPDH) (LAMT WT fibroblasts; 0.01 nM R1881, 24 hours): 60% | decrease in PCNA levels (LAMT WT fibroblasts; 100 nM R1881, 24 hours): 25% | AR levels (LAMT WT fibroblasts; [6]): increased AR levels in a dose-dependent manner

N#Cc1ccc(C(c2ccc(C#N)cc2)n2cncn2)cc1 [letrozole]
time required to reverse large hernias, compared to fulvestrant treatment (Arom^hum mice [4]): require a longer time to reverse large hernias as compared to fulvestrant treatment | reversal of large scrotal hernia (Arom^hum mice [4]; letrozole for 12 weeks, FIG. 19): reverses large scrotal hernia | muscle fibrosis (Arom^hum mice [4]; [7]): reduction in muscle fibrosis | myocyte size (Arom^hum mice [4]; [7]): restoration of myocyte size | reversal of mild to moderate size of hernia (150-200 mm^2) (Arom^hum mice [4]; Arom^hum mice, letrozole for 12 weeks, FIG. 16): can reverse mild to moderate size of hernia | hernia development (Arom^hum mice [5]; Arom^hum male mice, letrozole 10 μg daily via subcutaneous slow-release pellets starting at week 3, 12 weeks): entirely prevented LAMT fibrosis or inguinal hernia development in all animals; also recorded: prevented hernia development in all Arom^hum mice; also recorded: prevents abdominal bulging, LAMT stromal fibrosis, myocyte atrophy, and inguinal hernias in three lines of Arom^hum mice; also recorded: completely prevented the formation of inguinal hernias | ECM content in LAMT (Arom^hum mice [5]; Arom^hum mice): significantly decreased | development of LAMT fibrosis (fibrotic area, Masson's trichrome) (Arom^hum mice [5]; Arom^hum mice, 4-week-old mice treated for 12 weeks, FIGS. 15C and D): completely prevented with letrozole treatment | stromal cell proliferative activity (Ki67-positive stromal cells) in LAMT (Arom^hum mice [5]; Arom^hum mice, FIG. 7E): significantly decreased stromal cell proliferative activity | LAMT atrophy and fibrosis (Masson's trichrome staining) (Arom^hum mice [5]; Arom^hum mice, letrozole, FIG. 6B): prevented LAMT atrophy and fibrosis | treated mice in which LAMT atrophy, fibrosis and herniation were prevented (Arom^hum mice [5]; Arom^hum mice, started at 3 weeks of age for 12 weeks): 10 out of 10 | LAMT E2 levels (LAMT E2): restored LAMT E2 levels similar to WT LAMT levels

O=C(c1ccc(OCCN2CCCCC2)cc1)c1c(-c2ccc(O)cc2)sc2cc(O)ccc12 [raloxifene]
time required to reverse large hernias, compared to fulvestrant treatment (Arom^hum mice [4]): require a longer time to reverse large hernias as compared to fulvestrant treatment | reversal of large scrotal hernia (Arom^hum mice [4]; raloxifene for 3 weeks, FIG. 20): reverses large scrotal hernia | reversal of small to large hernias (Arom^hum mice [4]; Arom^hum mice, 3-week raloxifene treatment, FIGS. 17 and 20): capable to reverse small to large hernias | reversal of mild to moderate size of hernia (Arom^hum mice [4]; Arom^hum mice, raloxifene for 21 days, FIG. 17): can also reverse mild to moderate size of hernia; also recorded: reverses the small to moderate size of scrotal hernias
